Read-outs that look alike come from different tables or passages of the source.
Tests used:
human orexin-1 receptor = human orexin-1 receptor (Homo sapiens (Human), UniProt O43613); assay: In vitro assay: intracellular calcium measurements (FLIPR), antagonistic activity; assay type: cell-based; conditions: CHO cells, 3 nM orexin-A, marked values are geometric means of n = 2-6, read-out: IC50 OX1
human orexin-2 receptor = human orexin-2 receptor (Homo sapiens (Human), UniProt O43614); assay: as above; assay type: cell-based; conditions: CHO cells, 3 nM orexin-A, marked values are geometric means of n = 2-6, read-out: IC50 OX2
[1] = compound incubation time of 10 min

Chain of human orexin-1 receptor (O43613 whole entry): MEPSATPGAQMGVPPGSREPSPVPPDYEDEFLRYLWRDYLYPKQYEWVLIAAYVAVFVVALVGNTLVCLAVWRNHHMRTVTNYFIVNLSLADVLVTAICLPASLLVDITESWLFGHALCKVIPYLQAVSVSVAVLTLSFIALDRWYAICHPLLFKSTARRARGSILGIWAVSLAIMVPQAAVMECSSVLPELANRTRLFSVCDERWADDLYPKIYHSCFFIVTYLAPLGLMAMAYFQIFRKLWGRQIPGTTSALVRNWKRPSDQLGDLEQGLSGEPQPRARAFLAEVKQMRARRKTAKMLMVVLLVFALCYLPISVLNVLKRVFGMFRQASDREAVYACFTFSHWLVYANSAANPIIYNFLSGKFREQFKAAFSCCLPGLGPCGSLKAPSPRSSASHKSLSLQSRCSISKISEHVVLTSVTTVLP
Chain of human orexin-2 receptor (O43614 whole entry): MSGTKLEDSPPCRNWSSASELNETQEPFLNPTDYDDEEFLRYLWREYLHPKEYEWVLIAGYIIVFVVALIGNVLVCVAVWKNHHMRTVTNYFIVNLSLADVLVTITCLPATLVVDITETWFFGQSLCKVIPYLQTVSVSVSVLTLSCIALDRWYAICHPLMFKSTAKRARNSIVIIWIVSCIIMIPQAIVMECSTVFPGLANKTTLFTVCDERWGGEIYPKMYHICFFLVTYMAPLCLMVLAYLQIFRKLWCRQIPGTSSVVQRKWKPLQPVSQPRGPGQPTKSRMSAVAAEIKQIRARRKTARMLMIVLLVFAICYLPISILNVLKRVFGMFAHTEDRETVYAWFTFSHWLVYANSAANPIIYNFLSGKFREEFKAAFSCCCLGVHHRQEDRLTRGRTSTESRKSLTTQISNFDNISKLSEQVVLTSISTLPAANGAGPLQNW

Structure (SMILES)	IC50 (human orexin-1 receptor; [1]) [nM]	IC50 (human orexin-2 receptor; [1]) [nM]	IC50 (human orexin-1 receptor; compound incubation 120 min) [nM]	IC50 (human orexin-2 receptor; compound incubation 120 min) [nM]
COc1cc(C)cc(OC)c1C1CCCC(=O)N1Cc1ccc(OC(F)(F)F)cc1 (stereo not shown) [Example 233, 6-(2,6-dimethoxy-4-methylphenyl)-1-(4-(trifluoromethoxy)benzyl)piperidin-2-one]	400	107		
COc1cc(F)cc(OC)c1C1CCCC(=O)N1Cc1cccc(-c2ccccc2)c1 (stereo not shown) [Example 234, 1-([1,1′-biphenyl]-3-ylmethyl)-6-(4-fluoro-2,6-dimethoxyphenyl)piperidin-2-one]			262	232
COc1ccc2c(C)noc2c1C1CCCC(=O)N1Cc1cccc(-c2ccccc2)c1 (stereo not shown) [Example 235, 1-([1,1′-biphenyl]-3-ylmethyl)-6-(6-methoxy-3-methylbenzo[d]isoxazol-7-yl)piperidin-2-one]			288	194
COc1ccccc1C1CCCC(=O)N1Cc1ccc2ccccc2c1 (stereo not shown) [Example 236, 6-(2-methoxyphenyl)-1-(naphthalen-2-ylmethyl)piperidin-2-one]	1770	369		
COc1ccccc1C1CCCC(=O)N1Cc1ccc(OC(F)(F)F)cc1 (stereo not shown) [Example 237, 6-(2-methoxyphenyl)-1-(4-(trifluoromethoxy)benzyl)piperidin-2-one]	3490	635		
COc1cccc(OC)c1C1CCCC(=O)N1Cc1ccc2ccccc2c1 (stereo not shown) [Example 238, 6-(2,6-dimethoxyphenyl)-1-(naphthalen-2-ylmethyl)piperidin-2-one]	77	47		
O=C1CCCC(c2ccccc2C(F)(F)F)N1Cc1ccc2ccccc2c1 (stereo not shown) [Example 239, 1-(naphthalen-2-ylmethyl)-6-(2-(trifluoromethyl)phenyl)piperidin-2-one]	6420	3580		
COc1cccc(OC)c1C1CCCC(=O)N1Cc1ccc2c(c1)CCCN2 (stereo not shown) [Example 240, 6-(2,6-dimethoxyphenyl)-1-((1,2,3,4-tetrahydroquinolin-6-yl)methyl)piperidin-2-one]	2040	596		
COc1cccc(OC)c1C1CCCC(=O)N1Cc1ccc2c(ccn2C)c1 (stereo not shown) [Example 241, 6-(2,6-dimethoxyphenyl)-1-((1-methyl-1H-indol-5-yl)methyl)piperidin-2-one]	426	275		
COc1cccc(OC)c1C1CCCC(=O)N1Cc1cn2ccccc2n1 (stereo not shown) [Example 242, 6-(2,6-dimethoxyphenyl)-1-(imidazo[1,2-a]pyridin-2-ylmethyl)piperidin-2-one]	17700	1390		
COc1cccc(OC)c1C1CCCC(=O)N1Cc1ccc2c(c1)nnn2C (stereo not shown) [Example 243, 6-(2,6-dimethoxyphenyl)-1-((1-methyl-1H-benzo[d][1,2,3]triazol-5-yl)methyl)piperidin-2-one]	10100	311		
COc1cccc(OC)c1C1CCCC(=O)N1Cc1ccc(-c2ccccc2)cc1 (stereo not shown) [Example 244, 1-([1,1′-biphenyl]-4-ylmethyl)-6-(2,6-dimethoxyphenyl)piperidin-2-one]	1090	72		
COc1cccc(OC)c1C1CCCC(=O)N1Cc1ccc(N2CCCC2)cc1 (stereo not shown) [Example 245, 6-(2,6-dimethoxyphenyl)-1-(4-(pyrrolidin-1-yl)benzyl)piperidin-2-one]	1070	132		
COc1cccc(OC)c1C1CCCC(=O)N1Cc1ccc(OCC(F)(F)F)cc1 (stereo not shown) [Example 246, 6-(2,6-dimethoxyphenyl)-1-(4-(2,2,2-trifluoroethoxy)benzyl)piperidin-2-one]	665	11		
COc1cccc(OC)c1C1CCCC(=O)N1Cc1cc2ccccc2n1C (stereo not shown) [Example 247, 6-(2,6-dimethoxyphenyl)-1-((1-methyl-1H-indol-2-yl)methyl)piperidin-2-one]	132	41		
COc1cccc(OC)c1C1CCCC(=O)N1Cc1ccc(S(C)(=O)=O)cc1 (stereo not shown) [Example 248, 6-(2,6-dimethoxyphenyl)-1-(4-(methylsulfonyl)benzyl)piperidin-2-one]	7250	1710		
COc1cccc(OC)c1C1CCCC(=O)N1Cc1ccc2oc(C)nc2c1 (stereo not shown) [Example 249, 6-(2,6-dimethoxyphenyl)-1-((2-methylbenzo[d]oxazol-5-yl)methyl)piperidin-2-one]			334	223
COc1cccc(OC)c1C1CCCC(=O)N1Cc1ccc2sccc2c1 (stereo not shown) [Example 250, 1-(benzo[b]thiophen-5-ylmethyl)-6-(2,6-dimethoxyphenyl)piperidin-2-one]	204	140		
CCOc1ccccc1C1CCCC(=O)N1Cc1ccc(OC(F)(F)F)cc1 (stereo not shown) [Example 251, 6-(2-ethoxyphenyl)-1-(4-(trifluoromethoxy)benzyl)piperidin-2-one]	4070	426		

Structure (SMILES)	IC50 (human orexin-1 receptor; [1]) [nM]	IC50 (human orexin-2 receptor; [1]) [nM]	IC50 (human orexin-1 receptor; compound incubation 120 min) [nM]	IC50 (human orexin-2 receptor; compound incubation 120 min) [nM]
O=C1CCCC(c2ccccc2OC(F)(F)F)N1Cc1ccc(OC(F)(F)F)cc1 (stereo not shown) [Example 252, 1-(4-(trifluoromethoxy)benzyl)-6-(2-(trifluoromethoxy)phenyl)piperidin-2-one]	9370	2660		
COc1cccc(OC)c1C1CC(F)(F)C(=O)N1Cc1ccc(OC(F)(F)F)cc1 (stereo not shown) [Example 256, 5-(2,6-dimethoxyphenyl)-3,3-difluoro-1-(4-(trifluoromethoxy)benzyl)pyrrolidin-2-one]	193	133		
COc1cccc(OC)c1C1COCC(=O)N1Cc1ccc(OC(F)(F)F)cc1 (stereo not shown) [Example 266, 5-(2,6-dimethoxyphenyl)-4-(4-(trifluoromethoxy)benzyl)morpholin-3-one]	412	86		
COc1cccc(OC)c1C1CNCC(=O)N1Cc1ccc(OC(F)(F)F)cc1 (stereo not shown) [Example 267, 6-(2,6-dimethoxyphenyl)-1-(4-(trifluoromethoxy)benzyl)piperazin-2-one]	2680	589		
COc1cccc(OC)c1C1CN(C)CC(=O)N1Cc1ccc(OC(F)(F)F)cc1 (stereo not shown) [Example 268, 6-(2,6-dimethoxyphenyl)-4-methyl-1-(4-(trifluoromethoxy)benzyl)piperazin-2-one]	1270	410		
COc1ncnc(OC)c1C1CCCC(=O)N1Cc1cccc(-c2csc(C)n2)c1 (stereo not shown) [Example 269, 6-(4,6-dimethoxypyrimidin-5-yl)-1-(3-(2-methylthiazol-4-yl)benzyl)piperidin-2-one]			1030	619
COc1ncnc(OC)c1C1CCCC(=O)N1Cc1cccc(-c2ccccc2)c1 (stereo not shown) [Example 270, 1-([1,1′-biphenyl]-3-ylmethyl)-6-(4,6-dimethoxypyrimidin-5-yl)piperidin-2-one]			568	412
COc1ncnc(OC)c1C1CCCC(=O)N1Cc1csc(-c2ccccc2)n1 (stereo not shown) [Example 271, 6-(4,6-dimethoxypyrimidin-5-yl)-1-((2-phenylthiazol-4-yl)methyl)piperidin-2-one]			5690	256
Cc1nc(-c2cccc(CN3C(=O)CCCC3c3cccc4c3OCCO4)c2)cs1 (stereo not shown) [Example 272, 6-(2,3-dihydrobenzo[b][1,4]dioxin-5-yl)-1-(3-(2-methylthiazol-4-yl)benzyl)piperidin-2-one]			510	229
O=C1CCCC(c2cccc3c2OCCO3)N1Cc1cccc(-c2ccccc2)c1 (stereo not shown) [Example 273, 1-([1,1′-biphenyl]-3-ylmethyl)-6-(2,3-dihydrobenzo[b][1,4]dioxin-5-yl)piperidin-2-one]			795	296
COc1cncc(OC)c1C1CCCCC(=O)N1Cc1cccc(-c2csc(C)n2)c1 (stereo not shown) [Example 274, 7-(3,5-dimethoxypyridin-4-yl)-1-(3-(2-methylthiazol-4-yl)benzyl)azepan-2-one]			23	64
COc1cncc(OC)c1C1CCCCC(=O)N1Cc1cccc(-c2ccccc2)c1 (stereo not shown) [Example 275, 1-([1,1′-biphenyl]-3-ylmethyl)-7-(3,5-dimethoxypyridin-4-yl)azepan-2-one]			50	80
COc1cncc(OC)c1C1CCCCC(=O)N1Cc1ccc2c(c1)c1ccccc1n2C (stereo not shown) [Example 276, 7-(3,5-dimethoxypyridin-4-yl)-1-((9-methyl-9H-carbazol-3-yl)methyl)azepan-2-one]			347	222
COc1cncc(OC)c1C1CCCCC(=O)N1Cc1csc(-c2ccccc2)n1 (stereo not shown) [Example 277, 7-(3,5-dimethoxypyridin-4-yl)-1-((2-phenylthiazol-4-yl)methyl)azepan-2-one]			214	182
COc1cccc(OC)c1C1CCCC(=O)N1Cc1csc(Oc2ccccc2)n1 (stereo not shown) [Example 278, 6-(2,6-dimethoxyphenyl)-1-((2-phenoxythiazol-4-yl)methyl)piperidin-2-one]			250	172
COc1ccc2nc(C)oc2c1C1CCCC(=O)N1Cc1ccc2ccccc2n1 (stereo not shown) [Example 279, 6-(6-methoxy-2-methylbenzo[d]oxazol-7-yl)-1-(quinolin-2-ylmethyl)piperidin-2-one]			623	1030
COc1ccc2ncoc2c1C1CCCC(=O)N1Cc1ccc2ccccc2n1 (stereo not shown) [Example 280, 6-(6-methoxybenzo[d]oxazol-7-yl)-1-(quinolin-2-ylmethyl)piperidin-2-one]			1820	1800
COc1ccc(Cl)c(OC)c1C1CCCC(=O)N1Cc1cccc(-c2csc(C)n2)c1 (stereo not shown) [Example 281, 6-(3-chloro-2,6-dimethoxyphenyl)-1-(3-(2-methylthiazol-4-yl)benzyl)piperidin-2-one]			42	115
COc1cccc(OC)c1C1CCC(=O)N1Cc1ccc(Oc2nccs2)cc1 (stereo not shown) [Example 282, 5-(2,6-dimethoxyphenyl)-1-(4-(thiazol-2-yloxy)benzyl)pyrrolidin-2-one]			139	213

— patent US9242970B2 (ACTELION PHARMACEUTICALS LTD., priority 2010, dated 2016)
